Experimental data published in US20140369987A1, “DERMASEPTIN B2 USED AS AN INHIBITOR OF THE GROWTH OF A TUMOR” (Centre National de la Recherche Scientifique (C.N. R.S), priority 2009, published 2014).
Ends that are not written are not given here.

Columns and labels:
[1] = tested on: tumours induced by injection of PC-3; assay: Growth of PC-3 xenograft tumours in nude mice; format: in vivo
Protocol: Batches of 10 nude mice (nude/nude, Laboratoire IFFA CREDO) were injected with 2×10^6 PC-3 cells. One week after injection of the cells, the animals having a palpable tumour were randomly distributed per cage to be treated by injection into the tumour with 100 μl per day of PBS solution (control batch) or with a solution of dermaseptin B2 diluted in PBS. Dermaseptin B2 was injected at a concentration of 5 mg/kg the first week of treatment, then this dose was reduced to 0.5 mg/kg for 12 days. […] As control, a batch of mice was also treated with Taxol® (paclitaxel, Bristol-Myers Squibb) twice per week via intra-peritoneal injection at 10 mg/kg. The size of the tumours was measured using a calliper twice a week up until sacrifice of the animals 29 days after the beginning of treatment. After sacrifice, the tumours were removed and weighed.

[2] = tested on: G1947 human prostatic hyperplasia cells
Protocol: (§1) The anti-proliferative activity of dermaseptin B2 was assessed in vitro on different types of cells: PC-3 adenocarcinoma cells and G1947 human prostatic hyperplasia cells, and on mouse embryo cells (CES). The different types of cells were seeded in 24-well plates at […] in 0.5 ml of culture medium (RPMI supplemented with 5% foetal calf serum for the PC-3 and G1947 cells, or DMEM supplemented with 10% foetal calf serum for the CES cells). After 24 hours, the cells were treated with different doses of dermaseptin B2. The treatment was then renewed at days 3 and 5 after seeding of the cells. On the 6th day, an estimated cell count was performed by staining with crystal violet. The cells were rinsed with PBS, fixed on plastic by dehydration with absolute ethanol, and then stained with a 0.2% solution of crystal violet in 2% ethanol for 15 min. After washing, the cells were solubilised with 1% SDS solution. The optical density (OD) of the crystal violet was measured using a spectrophotometer at 595 nm. A standard range was produced for conversion of OD-number of cells.

mouse embryo cells (CES) = tested on: mouse embryo cells (CES)
Protocol: as §1

LB-EBV cells = assay: Growth of non-adherent B-lymphoma line LB-EBV, crystal violet cell count; format: cell-based, human; details: 10 μM; count on 7th day
Protocol: (§2) Dermaseptin B2 was also tested on the growth of two non-adherent lines derived from human B-lymphoma: the Raji and LB-EBV lines. The cells were seeded at 10^4 cells per well in 0.5 ml of RPMI medium supplemented with 2.5% of decomplemented foetal calf serum. 24 hours after seeding, the cells were treated with different concentrations of dermaseptin B2. […] On the 7th day, the cell count was estimated by staining with crystal violet as described previously.

Raji cells = assay: Growth of non-adherent B-lymphoma line Raji, crystal violet cell count; format: cell-based, human; details: 10 μM; count on 7th day
Protocol: as §2

PC-3 cells [3] = assay: Colony formation of PC-3 cells in soft agar; format: cell-based, human; details: 5 μM; 12 days
Protocol: To confirm the inhibition of the cell growth observed on plastic with the PC-3 cells, the inventors tested the effect of dermaseptin B2 on the ability of the PC-3 cells to multiply independently of anchoring by forming colonies in agar. For this assay, the cells were seeded at a density of 2.5×10^3 cells par cm^2 diluted in complete culture medium (RPMI supplemented with 5% foetal calf serum) containing 0.35% agar and varying concentrations of dermaseptin B2, in 12-well dishes containing 1 ml of solidified 0.6% agar. The same variable concentrations of dermaseptin B2 were also added to the complete culture medium deposited on top of the cultures on the day of seeding, and twice per week. After incubation for 12 days at 37° C. in an incubator saturated with water vapour and containing 7% CO2, the colonies having a diameter larger than […] were counted. Each measurement was performed in triplicate and each experiment was repeated three times.

[4] = tested on: adult bovine aortic endothelial cells (ABAE); assay: Proliferation of ABAE endothelial cells on plastic; format: cell-based; details: with 5 ng/ml FGF-2; count on 7th day
Protocol: The angiostatic activity of dermaseptin B2 was assessed for its capacity to inhibit firstly the proliferation of adult bovine aortic endothelial cells (ABAE) on plastic and secondly the formation of pseudo capillaries by these same cells in collagen gel. For the proliferation test the ABAE cells were seeded in 24-well plates at a density of 10^4 cells/well in DMEM medium supplemented with 10% foetal calf serum and 5 ng/ml of FGF-2. […] On the 7th day the cell count was estimated by staining with crystal violet.

ABAE cells = assay: Formation of pseudo capillaries by ABAE cells on collagen 1 gel (Montessano test); format: cell-based, bovine; details: 5 μM
Protocol: The effect of dermaseptin B2 on the formation of pseudo capillaries was assessed through use of the Montessano test. This test allows evaluation of the differentiation of ABAE cells to pseudo capillaries when seeded in a monolayer on collagen 1 gel. For this assay, ABAE cells were seeded in 24-well plates on a monolayer of collagen 1 to the proportion of 10^5 cells/well in DMEM medium supplemented with 10% foetal calf serum. 24 hours after seeding, 20 ng/ml of FGF-2 were added to the cells in the absence or presence of varying concentrations of dermaseptin B2. This treatment was renewed for two days and the formation of a network of pseudo capillaries was assessed 24 hours later by observation under phase contrast microscope measuring the number of capillaries formed per field of observation (FIGS. 5C and D).

PC-3 cells [5] = assay: Annexin V FITC / propidium iodide double labelling, flow cytometry; format: cell-based, human; details: 2.5 μM
Excerpt: During the proliferation assays of PC-3 or ABAE cells, in the presence of dermaseptin B2, the rapidly observed inhibitor effect and the non-refringence of the treated cells leads to assuming that dermaseptin B2 could have a cytotoxic role or cell death inducing role rather than blocking the growth of sensitive cells. To determine whether dermaseptin B2 could induce apoptosis of sensitive cells, the inventors conducted double labelling experiments with Annexin V and propidium iodide on PC-3 cells in culture on plastic and treated or not treated with dermaseptin B2. These experiments were followed by flow cytometry analysis of the labelled cells.
For this purpose, the cells were seeded in 6-well plates in the absence or presence of 2.5 μM of dermaseptin B2 for 24 or 72 hours. The cells were then detached, washed with cold PBS and re-suspended in 100 μl of fixing buffer (MACs, Miltenyi Biotec) containing Annexin V FITC for 10 min in the dark. After washings in PBS, the cells were again labelled by incubation in a fixing buffer containing a final concentration of 1 μg/ml of propidium iodide (PI) for 5 min in the dark. After further washings the cells were analyzed by passing through a flow cytometer (FACScan, Becton Dickinson Labware) (FIGS. 10 and 11).

[6] = tested on: Gram+ and Gram− bacteria, yeasts, protozoa and filamentous fungi; details: micromolar doses; cited from earlier work
receptor of adenosin A1 = details: cited from earlier work

| Molecule | inhibition of tumour growth (tumour volume) compared with non-treated tumours ([1]; intra-peritoneal 10 mg/kg twice per week, 29 days of treatment) [%] | cell detachment during treatment, G1947 cells [2] | cell detachment during treatment, embryo (CES) cells (mouse embryo cells (CES)) | inhibition of growth of LB-EBV cells (LB-EBV cells) | inhibition of growth of Raji cells (Raji cells) | growth of PC-3 cells on soft agar (colonies) (PC-3 cells [3]) | mice with full disappearance of the tumour ([1]; batches of 10 mice, after sacrifice at day 29) [mice] | inhibition of growth of ABAE cells [4] | formation of pseudo capillaries induced by FGF-2 (ABAE cells; 20 ng/ml FGF-2) | cytotoxic effect on the monolayer of ABAE cells (ABAE cells; pseudo capillary assay) | increase of percentage of cells labelled solely with PI (necrosis) (PC-3 cells [5]) [times] | increase in cells labelled twofold with Annexin V and PI (apoptosis) (PC-3 cells [5]; 24 h) | increase of percentage of cells only labelled with Annexin V (early apoptosis) (PC-3 cells [5]; 24 h) [times] | percentage of non-labelled cells (PC-3 cells [5]; 24 h) | percentage of cells labelled twofold with Annexin V and PI, 72 h versus 24 h (PC-3 cells [5]; 72 h) | killing of Gram+ and Gram− bacteria, yeasts, protozoa and filamentous fungi [6] | effect on binding of agonists with the receptor of adenosin A1 (receptor of adenosin A1) |
| --- | --- | --- | --- | --- | --- | --- | --- | --- | --- | --- | --- | --- | --- | --- | --- | --- | --- |
| CC(=O)O[C@H]1C(=O)[C@@]2(C)[C@H]([C@H](OC(=O)c3ccccc3)[C@]3(O)C[C@H](OC(=O)[C@H](O)[C@@H](NC(=O)c4ccccc4)c4ccccc4)C(C)=C1C3(C)C)[C@]1(OC(C)=O)CO[C@@H]1C[C@@H]2O [Taxol®, paclitaxel, reference compound] | 36 |  |  |  |  |  |  |  |  |  |  |  |  |  |  |  |  |
| GLWSKIKEVGKEAAKAAAKAAGKAALGAVSEAV [dermaseptin B2] |  | no cell detachment was observed | no cell detachment was observed | about 95 | about 95 | fully inhibits growth | 3 | dose-dependent and full inhibition | strongly inhibits | did not have any cytotoxic effect | 3 | about 30% | 5 | dropped suddenly in the same proportions | does not change | rapidly kills | increase the binding of agonists |
